This experiment has as its target T1, PHD2 (Homo sapiens, UniProt Q9GZT9).
T1 construct: FLAG-tagged full length PHD2expressed in and purified from baculovirus-infected Sf9 cells; FLAG; made in house; host or cells: baculovirus-infected Sf9 cells
As to the kind of experiment: Assay for HIF-PHD2 Catalytic Activity (time resolved fluorescence, VHL complex detection). To be noted: FLAG-tagged full length PHD2; 0.2 μM 2-oxoglutarate, 0.5 μM HIF-1α peptide; read-out: PHD2 Binding Activity IC50. Type of experiment: biochemical. The method, then: Assay for HIF-PHD2Catalytic Activity To each well of a 96-well plate was added 1 μL of test compound in DMSO and 20 μl of assay buffer (50 mM Tris pH 7.4/0.01% Tween-20/0.1 mg/ml bovine serum albumin/10 μM ferrous sulfate/1mM sodium ascorbate/20 μg/ml catalase) containing 0.15 μg/ml FLAG-tagged full length PHD2expressed in and purified from baculovirus-infected Sf9 cells. After a 30 min preincubation at room temperature, the enzymatic reactions were initiated by the addition of 4 μL of substrates (final concentrations of 0.2 μM 2-oxoglutarate and 0.5 μM HIF-1α peptide biotinyl-DLDLEMLAPYJPMDDDFQL).

Bounds are passed on as bounds.

T1 sequence (Q9GZT9 whole entry): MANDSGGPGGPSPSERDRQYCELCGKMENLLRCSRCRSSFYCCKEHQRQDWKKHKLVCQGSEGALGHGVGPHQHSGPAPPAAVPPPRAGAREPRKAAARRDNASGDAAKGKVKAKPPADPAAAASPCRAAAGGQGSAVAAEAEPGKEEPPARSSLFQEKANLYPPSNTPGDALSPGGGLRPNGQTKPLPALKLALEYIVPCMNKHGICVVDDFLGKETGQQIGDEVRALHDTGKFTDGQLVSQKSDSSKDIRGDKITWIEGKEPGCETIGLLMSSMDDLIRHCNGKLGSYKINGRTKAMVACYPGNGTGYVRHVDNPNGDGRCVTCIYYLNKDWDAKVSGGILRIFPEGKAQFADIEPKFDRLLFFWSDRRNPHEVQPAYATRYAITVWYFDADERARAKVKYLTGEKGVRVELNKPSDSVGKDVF

Consider `O=C(O)CNC(=O)c1c(O)c2c(n(Cc3nc4ccccc4s3)c1=O)COC2` [Example 1, N-{[1-(1,3-benzothiazol-2-ylmethyl)-4-hydroxy-2-oxo-1,2,5,7-tetrahydrofuro[3,4-b]-pyridin-3-yl]carbonyl}glycine], for which the IC50 – broadly, the concentration at which inhibition is half-maximal – is under 0.01 µM.

As to `O=C(O)CNC(=O)c1c(O)c2c(n(Cc3cccnn3)c1=O)COC2` [Example 4, N-{[4-hydroxy-2-oxo-1-(pyridazin-3-ylmethyl)-1,2,5,7-tetrahydrofuro[3,4-b]pyridin-3-yl]carbonyl}glycine], the IC50 is under 0.01 µM.

As for `O=C(O)CNC(=O)c1c(O)c2c(n(Cc3noc(-c4ccccc4)n3)c1=O)COC2` [Example 5, N-({4-hydroxy-2-oxo-1-[(5-phenyl-1,2,4-oxadiazol-3-yl)methyl]-1,2,5,7-tetrahydrofuro[3,4-b]pyridin-3-yl}carbonyl)glycine], the IC50 was under 0.01 µM.

Take `Cc1cnc(Cn2c3c(c(O)c(C(=O)NCC(=O)O)c2=O)COC3)cn1` [Example 7]: the IC50 was under 0.01 µM.

On to `CC(C)Oc1ccc(Cn2c3c(c(O)c(C(=O)NCC(=O)O)c2=O)COC3)cc1` [Example 8, N-{[4-hydroxy-1-(4-isopropoxybenzyl)-2-oxo-1,2,5,7-tetrahydrofuro[3,4-b]pyridin-3-yl]carbonyl}glycine], for which the IC50 was under 0.01 µM.

On to `O=C(O)CNC(=O)c1c(O)c2c(n(Cc3ccc(Cl)nc3)c1=O)COC2` [Example 9, N-({1-[(6-chloropyridin-3-yl)methyl]-4-hydroxy-2-oxo-1,2,5,7-tetrahydrofuro[3,4-b]pyridin-3-yl}carbonyl)glycine], for which the IC50 is under 0.01 µM.

As for `O=C(O)CNC(=O)c1c(O)c2c(n(Cc3ccc(Br)cc3)c1=O)COC2` [Example 10, N-{[1-(4-bromobenzyl)-4-hydroxy-2-oxo-1,2,5,7-tetrahydrofuro[3,4-b]pyridin-3-yl]carbonyl)glycine], the IC50 is under 0.01 µM.

As for `O=C(O)CNC(=O)c1c(O)c2c(n(CC3Cc4ccccc4C3)c1=O)COC2` [Example 11, N-{[1-(2,3-dihydro-1H-inden-2-ylmethyl)-4-hydroxy-2-oxo-1,2,5,7-tetrahydrofuro[3,4-b]pyridin-3-yl]carbonyl}glycine], the concentration for half-maximal inhibition (IC50) was under 0.01 µM.

Regarding `O=C(O)CNC(=O)c1c(O)c2c(n(Cc3cnc(Cl)cn3)c1=O)COC2` [Example 12, N-({1-[(5-chloropyrazin-2-yl)methyl]-4-hydroxy-2-oxo-1,2,5,7-tetrahydrofuro[3,4-b]pyridin-3-yl}carbonyl)glycine], the IC50 was under 0.01 µM.

Regarding `CC1OCc2c1c(O)c(C(=O)NCC(=O)O)c(=O)n2Cc1ccc(C(F)(F)F)cc1` (stereo not drawn) [Example 13, N-({4-hydroxy-5-methyl-2-oxo-1-[4-(trifluoromethyl)benzyl]-1,2,5,7-tetrahydrofuro[3,4-b]pyridin-3-yl}carbonyl)glycine], the IC50 was under 0.01 µM.

With `CC1OCc2c1c(O)c(C(=O)NCC(=O)O)c(=O)n2Cc1ccc(C(F)(F)F)nc1` (stereo not drawn) [Example 14, N-[(4-hydroxy-5-methyl-2-oxo-1-{[6-(trifluoromethyl)pyridine-3-yl]methyl}-1,2,5,7-tetrahydrofuro[3,4-b]pyridin-3-yl}carbonyl)glycine], the IC50 was under 0.01 µM.

Turning to `O=C(O)CNC(=O)c1c(O)c2c(n(Cc3ccc(Br)cc3F)c1=O)COC2` [Example 15, N-{[1-(4-bromo-2-fluorobenzyl)-4-hydroxy-2-oxo-1,2,5,7-tetrahydrofuro[3,4-b]pyridin-3-yl]carbonyl}glycine], the IC50 was under 0.01 µM.

Regarding `O=C(O)CNC(=O)c1c(O)c2c(n(Cc3ccc(OC(F)F)cc3)c1=O)COC2` [Example 17, N-{[1-(4-difluoromethoxybenzyl)-4-hydroxy-2-oxo-1,2,5,7-tetrahydrofuro[3,4-b]pyridin-3-yl]carbonyl}glycine], the IC50 was under 0.01 µM.

Consider `O=C(O)CNC(=O)c1c(O)c2c(n(Cc3ccc(OCC(F)(F)F)nc3)c1=O)COC2` [Example 19, N-[(4-hydroxy-2-oxo-1-{[6-(2,2,2-trifluoroethoxy)pyridin-3-yl]methyl}-1,2,5,7-tetrahydrofuro[3,4-b]pyridin-3-yl)carbonyl]glycine], for which the IC50 was under 0.01 µM.

Regarding `Cc1ccccc1-n1ccc(Cn2c3c(c(O)c(C(=O)NCC(=O)O)c2=O)COC3)n1` [Example 20, N-[(4-hydroxy-1-{[1-(2-methylphenyl)-1-H-pyrazol-3-yl]methyl}-2-oxo-1,2,5,7-tetrahydrofuro[3,4-b]pyridin-3-yl)carbonyl]glycine], the IC50 is under 0.01 µM.

Regarding `Cc1nn(-c2ccccc2)nc1Cn1c2c(c(O)c(C(=O)NCC(=O)O)c1=O)COC2` [Example 21, N-({4-hydroxy-1-[(5-methyl-2-phenyl-2H-1,2,3-triazol-4-yl)methyl]-2-oxo-1,2,5,7-tetrahydrofuro[3,4-b]pyridin-3-yl}carbonyl)glycine], the IC50 was under 0.01 µM.

With `O=C(O)CNC(=O)c1c(O)c2c(n(Cc3ccn(-c4ccc(F)cc4)n3)c1=O)COC2` [Example 22], the IC50 was under 0.01 µM.

`O=C(O)CNC(=O)c1c(O)c2c(n(Cc3ccc(-c4nccs4)cc3)c1=O)COC2` [Example 23, N-({4-hydroxy-2-oxo-1-[4-(1,3-thiazol-2-yl)benzyl]-1,2,5,7-tetrahydrofuro[3,4-b]pyridin-3-yl}carbonyl)glycine]: the IC50 was under 0.01 µM.

As to `O=C(O)CNC(=O)c1c(O)c2c(n(Cc3ccc(OCC(F)(F)F)cc3)c1=O)COC2` [Example 24, N-({4-hydroxy-2-oxo-1-[4-(2,2,2-trifluoroethoxy)benzyl]-1,2,5,7-tetrahydrofuro[3,4-b]pyridin-3-yl}carbonyl)glycine], the IC50 was under 0.01 µM.

As for `CC1(C)OCc2c(O)c(C(=O)NCC(=O)O)c(=O)n(Cc3nc4ccccc4s3)c21` [Example 25], the IC50 is 0.01 to 0.1 µM.

In the case of `O=C(O)CNC(=O)c1c(O)c2c(n(Cc3nc(-c4ccc(Cl)cc4Cl)cs3)c1=O)COC2` [Example 26, N-[(1-{[4-(2,4-dichlorophenyl)-1,3-thiazol-2-yl]methyl)-4-hydroxy-2-oxo-1,2,5,7-tetrahydrofuro[3,4-b]pyridin-3-yl)carbonyl]glycine], the IC50 is under 0.01 µM.

Turning to `O=C(O)CNC(=O)c1c(O)c2c(n(Cc3nc(-c4ccccc4Cl)cs3)c1=O)COC2` [Example 27, N-[(1-{[4-(2-chlorophenyl)-1,3-thiazol-2-yl]methyl)-4-hydroxy-2-oxo-1,2,5,7-tetrahydrofuro[3,4-b]pyridin-3-yl)carbonyl]glycine], the IC50 was under 0.01 µM.

Regarding `O=C(O)CNC(=O)c1c(O)c2c(n(Cc3ccc(-c4ccccc4Cl)cc3)c1=O)COC2` [Example 28], the IC50 was under 0.01 µM.

Consider `O=C(O)CNC(=O)c1c(O)c2c(n(Cc3ccc(-c4ccccc4Cl)nc3)c1=O)COC2` [Example 29], for which the IC50 is under 0.01 µM.

On to `O=C(O)CNC(=O)c1c(O)c2c(n(Cc3ccc(-c4ccc(Cl)cc4)cc3)c1=O)COC2` [Example 30], for which the half-maximal inhibitory concentration (IC50) is under 0.01 µM.

As for `O=C(O)CNC(=O)c1c(O)c2c(n(Cc3ccc(-c4ccc(F)cc4)cc3)c1=O)COC2` [Example 31], the IC50 was under 0.01 µM.

For the compound `O=C(O)CNC(=O)c1c(O)c2c(n(Cc3ccc(-c4ccccc4-n4cccn4)cc3)c1=O)COC2` [Example 32, N-[(4-hydroxy-2-oxo-1-{[2′-(1H-pyrazol-yl)biphenyl-4-yl]methyl}-1,2,5,7-tetrahydrofuro[3,4-b]pyridin-3-yl}carbonyl)glycine], the IC50 was under 0.01 µM.

For `O=C(O)CNC(=O)c1c(O)c2c(n(Cc3ccc(-c4ccccc4C(F)(F)F)cc3)c1=O)COC2` [Example 33, N-[(4-hydroxy-2-oxo-1-{[2′-(trifluoromethyl)biphenyl-4-yl]methyl}-1,2,5,7-tetrahydrofuro[3,4-b]pyridin-3-yl}carbonyl)glycine], the IC50 was under 0.01 µM.

Consider `O=C(O)CNC(=O)c1c(O)c2c(n(Cc3ccc(-c4ccccc4OCC(F)(F)F)cc3)c1=O)COC2` [Example 34, N-[(4-hydroxy-1-{[2′-(2,2,2-trifluoroethoxy)biphenyl-4-yl]methyl}-2-oxo-1,2,5,7-tetrahydrofuro[3,4-b]pyridin-3-yl}carbonyl)glycine], for which the IC50 is under 0.01 µM.

`O=C(O)CNC(=O)c1c(O)c2c(n(Cc3ccc(-c4ccc(Cl)cc4Cl)cc3)c1=O)COC2` [Example 35]: the IC50 was under 0.01 µM.

Turning to `COC(=O)c1ccccc1-c1ccc(Cn2c3c(c(O)c(C(=O)NCC(=O)O)c2=O)COC3)cc1` [Example 36, N-[(4-hydroxy-1-{[2′-(methoxycarbonyl)biphenyl-4-yl]methyl}-2-oxo-1,2,5,7-tetrahydrofuro[3,4,-b]pyridin-3-yl}carbonyl)glycine], the IC50 is under 0.01 µM.

As to `O=C(O)CNC(=O)c1c(O)c2c(n(Cc3ccc(-c4ccc(F)cc4Cl)cc3)c1=O)COC2` [Example 37], the IC50 is under 0.01 µM.

Regarding `O=C(O)CNC(=O)c1c(O)c2c(n(Cc3ccc(-c4ccccc4Cl)cc3F)c1=O)COC2` [Example 38], the IC50 is under 0.01 µM.

On to `O=C(O)CNC(=O)c1c(O)c2c(n(Cc3ccc(-c4ccc(F)cc4Cl)cc3F)c1=O)COC2` [Example 39], for which the IC50 is under 0.01 µM.

As to `CCN(CC)C(=O)c1ccccc1-c1ccc(Cn2c3c(c(O)c(C(=O)NCC(=O)O)c2=O)COC3)c(F)c1` [Example 40], the IC50 was under 0.01 µM.

`O=C(O)CNC(=O)c1c(O)c2c(n(Cc3ccc(-c4ccccc4)nc3)c1=O)COC2` [Example 41, N-({4-hydroxy-2-oxo-1-[(6-phenylpyridin-3-yl)methyl]-1,2,5,7-tetrahydrofuro[3,4-b]pyridin-3-yl}carbonyl)glycine]: the IC50 was under 0.01 µM.

The record behind these values is patent publication US8471024B2, “Tetrahydrofuropyridones” (priority 2008, dated 2013).
